One molecule from article PMC9501232, “Novel 4-Azapregnene Derivatives as Potential Anticancer Agents: Synthesis, Antiproliferative Activity and Molecular Docking Studies” (Molecules, 2022) can be followed below.

The structures appear in SMILES notation.

Common to all, as to type: cell-based, human
Test [1] has as its system LNCaP cells. As to the kind of experiment: MTT cell proliferation assay, LNCaP. Conditions: 72 h. The procedure: (§1) Cell lines, namely LNCaP, PC-3, T47-D and NHDF were obtained from American Type Culture Collection (ATCC; Manassas, VA, USA) and cultured in 75 cm^2 culture flasks at 37 °C in a humidified air incubator with 5% CO2. LNCaP, PC-3 and T47-D cells, which were used in passages 20th to 27th, 25th to 29th and 10th to 15th, respectively, were cultured in RPMI 1640 medium (Sigma-Aldrich, Inc., St. Louis, MO, USA) with 10% fetal bovine serum (FBS; Sigma-Aldrich, Inc. St. Louis, MO, USA) and 1% of the antibiotic mixture of 10,000 IU/mL penicillin G and […] of streptomycin (Sp, Sigma-Aldrich, Inc. St. Louis, MO, USA). Finally, NHDF cells (Normal Human Dermal Fibroblasts) were cultured in RPMI 1640 medium supplemented with 10% FBS, 2 mM L-glutamine, 10 mM HEPES, 1 mM sodium pyruvate and 1% of an antibiotic/antimycotic mixture (10,000 U/mL penicillin G, 100 mg/mL streptomycin and 25 µg/mL amphotericin B) (Ab; Sigma-Aldrich, Inc. St. Louis, MO, USA), and these cells were used in passages 10 to 12. For all cell types, the medium was renewed every 2–3 days until cells reach nearly the confluence state. Then, they were detached gently by trypsinization (trypsin-EDTA solution: 0.125 g/L of trypsin and 0.02 g/L of EDTA).
(§2) All the stock solutions were prepared by dissolving compounds in dimethyl sulfoxide (DMSO; Sigma-Aldrich, Inc., St. Louis, MO, USA) at 10 mM and stored at 4 °C. From these solutions, the several diluted compounds solutions in different concentrations were freshly prepared in a complete culture medium before each experiment.
(§3) As previously referred, cells were trypsinized after reaching a near confluence state and counted by the trypan blue exclusion assay in a Neubauer chamber. Then, 100 µL of cell suspension/well with an initial density of 2 × 10^4 cells/mL were seeded in 96-well culture plates (Nunc, Apogent, Denmark) and left to adhere for 48 h. After cells adherence, the medium was replaced by the distinct solutions of the compounds in the study (30 µM for preliminary studies and 0.01, 0.1, 1, 10, 50 and 100 µM for concentration–response studies) in the appropriate medium for approximately 72 h. 5-FU and finasteride were used as positive controls and untreated cells were used as the negative control. Each experiment was performed in quadruplicate and independently performed at least two times. The in vitro antiproliferative effects were evaluated by the MTT assay (Sigma-Aldrich, Inc. St. Louis, USA). After the incubation period, the medium was removed and 100 µL of phosphate buffer saline (NaCl 137 mM, KCl 2.7 mM, Na2HPO4 10 mM and KH2PO4 1.8 mM in deionized water and pH adjusted to 7.4) were used to wash the cells. Then, 100 µL of the MTT solution (5 mg/mL) was prepared in the appropriate serum-free medium and was added to each well, followed by incubation for 4 h at 37 °C. Hereafter, the MTT containing medium was removed and the formazan crystals were dissolved in DMSO. Then the absorbance was measured at 570 nm using a microplate spectrophotometer BIO-RAD xMarkTM. Cell viability values were expressed as percentages relative to the absorbance determined in the cells used as negative controls.
(§4) The data are expressed as a mean ± standard deviation (SD) and differences between groups were considered statistically significant when p < 0.05. The IC50 values were determined through sigmoidal fitting analysis with variable slope and considering a 95% confidence level. All data shown are representative of at least two independent experiments.
On the technique in general: Tetrazolium assays rely on reduction of a dye to a coloured formazan, in cell work by metabolically active cells.

The test system of test [2] is T47-D cells. As to the kind of experiment: MTT cell proliferation assay, T47-D. The settings on record: 72 h. The procedure:
as §1, §2, §3, §4

Test [3] deals with T47-D cells. Nature of the test: Cell nuclear morphology and distribution analysis with ImageJ. The text has this:
The nuclear measurements were achieved by converting 16-bit photomicrographs of Hoechst 3342-stained nuclei, in different conditions, into 8-bit images and then these images were autothresholded to binary photos using the default method “Make binary” function of ImageJ v 1.49. Cell nuclei that are touching were separated and fragments were discarded based on the area through the “Analyze Particle” function. This function also provides several information pretended as nuclear area, circumference and form factor [33]. In addition, the “Nearest Neighbor Distance” was determined. This function allows measuring the distance between each cell nucleus and the nearest ones.

Test [4] has as its system LNCaP cells. Nature of the test: Flow cytometry cell viability after PI staining. The settings on record: 50 µM. Here is the method:
Similar to the previous study, the analysis of cell viability was accomplished by flow cytometry after staining dead cells with propidium iodide (PI; Invitrogen, Carlsbad, USA). Succinctly, 1 mL of a cell suspension was seeded in 12-well culture plates (initial cell density of 5 × 10^4 cells/mL of LNCaP cells for 24 h assay and 2 × 10^4 cells/mL of the same cell line for 72 h assay) in a complete culture medium. After 48 h, the cells were treated with finasteride and 5-FU, as positive controls, and compound 3g at a concentration of 50 µM. Untreated cells were used as a negative control. At the pretended time point, the supernatant was collected and pooled with the cells harvested by trypsin treatment (each well was also washed with 400 µL of PBS before trypsin treatment). The resulting cell suspension was kept on ice and pelleted by centrifugation and resuspended with 400 µL of complete medium. Afterward, 5 µL of PI (1 mg/mL) was transferred to a FACS tube and 395 µL of the cell suspension was added to this tube. A total of 20,000 events (very small events excluded) were acquired using a FACSCalibur flow cytometer, using the FCS, SSC and FL3 (PI) channels. Acquisition and analysis were executed with CellQuestTM Pro (v. 5.1) software. […] The percentages of each region were calculated for a total of R1 + R2 + R3. […]
Background: In flow cytometry, cells or beads pass a laser one at a time.

As to `C[C@]12CC[C@H]3[C@@H](CC=C4NC(=O)CC[C@@]43C)[C@@H]1CC[C@@H]2C(=O)/C=C/c1cccnc1` [Compound 3g, 21E-[(Pyridin-3-yl)methylidene]-4-azapregn-5-ene-3,20-dione], the “MTT screening, cell proliferation” value in the test with LNCaP cells [1] (30 µM, average ± SD) is recorded as 0.7 ± 1.0 percentage of negative control; in the test with T47-D cells [2] (30 µM, average ± SD) it was 1.0 ± 0.4 percentage of negative control. Further, the half-inhibitory concentration (IC50) in the test on LNCaP cells [1] (Homo sapiens, MTT) worked out at 10.2 µM; in the test with T47-D cells [2] (Homo sapiens, T47D, MTT), 1.33 µM. In the test on T47-D cells [3] (20 µM, 24, 48 and 72 h, vs control), the Nuclear area entry is on record as “significant decrease in the nuclear area”. The “Nearest neighbor distance (NND) of cell nuclei” value with T47-D cells [3] (20 µM, 48 and 72 h) is recorded as “different distances”. Also, in the test with LNCaP cells [4] (24 h), the “Number of living cells (PI non-permeant)” value is “drastic reduction in the number of living cells”. Also, the “Number of viable cells (PI non-permeant)” value in the test on LNCaP cells [4] (72 h) was “almost absent”.

For orientation: IC50 means the midpoint of a concentration-inhibition curve. Read a low IC50 as inhibition by little substance.
